Results taken from PubChem BioAssay (NCI).
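The concentration for 50% growth inhibition is given as GI50. TGI is the concentration that stops growth completely.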

Key:
Experiment in all cases: NCI tumour cell line growth inhibition, 384-well format
[1] = system: ACHN renal
[2] = system: IGROV1 ovarian
[3] = system: SK-MEL-28 melanoma
[4] = system: SK-OV-3 ovarian
[5] = system: NCI-H522 lung
[6] = system: SK-MEL-5 melanoma
[7] = system: NCI-H322M lung
[8] = system: HL-60(TB) leukemia
[9] = system: HS 578T breast
[10] = system: SR leukemia
[11] = system: MDA-MB-435 melanoma
[12] = system: NCI-H226 lung
[13] = system: OVCAR-3 ovarian
[14] = system: MOLT-4 leukemia
[15] = system: RXF 393 renal
[16] = system: OVCAR-4 ovarian
[17] = system: HCC-2998 colon
[18] = system: HT29 colon
[19] = system: COLO 205 colon
[20] = system: HCT-116 colon
[21] = system: NCI-H23 lung
[22] = system: RPMI-8226 leukemia
[23] = system: SNB-75 CNS
[24] = system: OVCAR-8 ovarian
[25] = system: SF-295 CNS
[26] = system: SNB-19 CNS
[27] = system: T-47D breast
[28] = system: SF-539 CNS
[29] = system: HCT-15 colon
[30] = system: HOP-62 NSCLC
[31] = system: LOX IMVI melanoma
[32] = system: U251 glioblastoma
[33] = system: CCRF-CEM leukemia
[34] = system: DU-145 prostate
[35] = system: BT-549 breast
[36] = system: HOP-92 NSCLC
[37] = system: KM12 colon
[38] = system: SW-620 colon
[39] = system: SN12C renal
[40] = system: K-562 leukemia
[41] = system: TK-10 renal
[42] = system: A498 renal
[43] = system: A549 NSCLC
[44] = system: PC-3 prostate
[45] = system: MCF7 breast
[46] = system: M14 melanoma
[47] = system: CAKI-1 renal
[48] = system: UACC-257 melanoma
[49] = system: SF-268 CNS
[50] = system: NCI-H460 NSCLC
[51] = system: MALME-3M melanoma
[52] = system: MDA-MB-468 breast
[53] = system: EKVX NSCLC
[54] = system: MDA-MB-231 breast
[55] = system: UO-31 renal
[56] = system: NCI/ADR-RES ovarian
[57] = system: 786-0 renal
[58] = system: OVCAR-5 ovarian
[59] = system: UACC-62 melanoma

Structure (SMILES): O=C(NO)c1ccc(CN(c2cnccn2)c2cnccn2)cc1
- GI50 [1]: 11.2 µM
- TGI [1]: 23.8 µM
- GI50 [2]: 11.8 µM
- TGI [2]: 24.1 µM
- GI50 [3]: 2.93 µM
- TGI [3]: 7.33 µM
- GI50 [4]: 12.2 µM
- TGI [4]: 25.1 µM
- GI50 [5]: 4.84 µM
- TGI [5]: 16.2 µM
- GI50 [6]: 4.27 µM
- TGI [6]: 12.8 µM
- GI50 [7]: 9.66 µM
- TGI [7]: 22.4 µM
- GI50 [8]: 7.18 µM
- TGI [8]: 18.9 µM
- GI50 [9]: 10.5 µM
- TGI [9]: 22.4 µM
- GI50 [10]: 1.77 µM
- TGI [10]: 3.87 µM
- GI50 [11]: 4.96 µM
- TGI [11]: 15 µM
- GI50 [12]: 12.4 µM
- TGI [12]: 25.1 µM
- GI50 [13]: 3.27 µM
- TGI [13]: 12.2 µM
- GI50 [14]: 1.92 µM
- TGI [14]: 3.52 µM
- GI50 [15]: 3.83 µM
- TGI [15]: 14.2 µM
- GI50 [16]: 5.94 µM
- TGI [16]: 19 µM
- GI50 [17]: 12 µM
- TGI [17]: 24.4 µM
- GI50 [18]: 15.6 µM
- TGI [18]: 29.7 µM
- GI50 [19]: 3.36 µM
- TGI [19]: 8.11 µM
- GI50 [20]: 3.01 µM
- TGI [20]: 11.2 µM
- GI50 [21]: 2.01 µM
- TGI [21]: 3.96 µM
- GI50 [22]: 1.35 µM
- TGI [22]: 2.81 µM
- GI50 [23]: 5.98 µM
- TGI [23]: 18.2 µM
- GI50 [24]: 1.81 µM
- TGI [24]: 3.86 µM
- GI50 [25]: 2.62 µM
- TGI [25]: 6.48 µM
- GI50 [26]: 13 µM
- TGI [26]: 26.6 µM
- GI50 [27]: 5.59 µM
- TGI [27]: 17.6 µM
- GI50 [28]: 2.95 µM
- TGI [28]: 10.6 µM
- GI50 [29]: 11.7 µM
- TGI [29]: 24.3 µM
- GI50 [30]: 12.4 µM
- TGI [30]: 25.5 µM
- GI50 [31]: 7.46 µM
- TGI [31]: 19.8 µM
- GI50 [32]: 4.7 µM
- TGI [32]: 15.6 µM
- GI50 [33]: 2.32 µM
- TGI [33]: 4.28 µM
- GI50 [34]: 3.71 µM
- TGI [34]: 13.1 µM
- GI50 [35]: 11.5 µM
- TGI [35]: 24.1 µM
- GI50 [36]: 11.9 µM
- TGI [36]: 24.5 µM
- GI50 [37]: 3.31 µM
- TGI [37]: 12.3 µM
- GI50 [38]: 10.6 µM
- TGI [38]: 22.7 µM
- GI50 [39]: 14.7 µM
- TGI [39]: 28.1 µM
- GI50 [40]: 7.51 µM
- TGI [40]: 20.2 µM
- GI50 [41]: 12.9 µM
- TGI [41]: 26.4 µM
- GI50 [42]: 11.9 µM
- TGI [42]: 25.8 µM
- GI50 [43]: 13.8 µM
- TGI [43]: 27.1 µM
- GI50 [44]: 7.66 µM
- TGI [44]: 20.9 µM
- GI50 [45]: 4.65 µM
- TGI [45]: 19.4 µM
- GI50 [46]: 3.93 µM
- TGI [46]: 14.3 µM
- GI50 [47]: 12.4 µM
- TGI [47]: 26 µM
- GI50 [48]: 5.02 µM
- TGI [48]: 17.8 µM
- GI50 [49]: 8.01 µM
- TGI [49]: 20.9 µM
- GI50 [50]: 10.2 µM
- TGI [50]: 22.1 µM
- GI50 [51]: 3.38 µM
- TGI [51]: 12.6 µM
- GI50 [52]: 2.49 µM
- TGI [52]: 10 µM
- GI50 [53]: 7.91 µM
- TGI [53]: 20.2 µM
- GI50 [54]: 15.7 µM
- TGI [54]: 29.4 µM
- GI50 [55]: 13.5 µM
- TGI [55]: 26.6 µM
- GI50 [56]: 4.36 µM
- TGI [56]: 15.1 µM
- GI50 [57]: 14.5 µM
- TGI [57]: 27.8 µM
- GI50 [58]: 11 µM
- TGI [58]: 31.2 µM

Structure (SMILES): Cn1c(=O)c2c(ncn2CC(=O)Nc2ccc(-c3ccccc3)nn2)n(C)c1=O
- GI50 [1]: > 100 µM
- TGI [1]: > 100 µM
- GI50 [2]: > 100 µM
- TGI [2]: > 100 µM
- GI50 [3]: > 100 µM
- TGI [3]: > 100 µM
- GI50 [4]: > 100 µM
- TGI [4]: > 100 µM
- GI50 [5]: > 100 µM
- TGI [5]: > 100 µM
- GI50 [6]: 3.44 µM
- TGI [6]: > 100 µM
- GI50 [7]: > 100 µM
- TGI [7]: > 100 µM
- GI50 [8]: 6.01 µM
- TGI [8]: > 100 µM
- GI50 [9]: 72.9 µM
- TGI [9]: > 100 µM
- GI50 [10]: 21.6 µM
- TGI [10]: > 100 µM
- GI50 [11]: > 100 µM
- TGI [11]: > 100 µM
- GI50 [12]: > 100 µM
- TGI [12]: > 100 µM
- GI50 [13]: > 100 µM
- TGI [13]: > 100 µM
- GI50 [14]: > 100 µM
- TGI [14]: > 100 µM
- GI50 [15]: 27.1 µM
- TGI [15]: > 100 µM
- GI50 [16]: 25.8 µM
- TGI [16]: > 100 µM
- GI50 [17]: > 100 µM
- TGI [17]: > 100 µM
- GI50 [18]: > 100 µM
- TGI [18]: > 100 µM
- GI50 [19]: > 100 µM
- TGI [19]: > 100 µM
- GI50 [21]: > 100 µM
- TGI [21]: > 100 µM
- GI50 [22]: > 100 µM
- TGI [22]: > 100 µM
- GI50 [23]: > 100 µM
- TGI [23]: > 100 µM
- GI50 [24]: > 100 µM
- TGI [24]: > 100 µM
- GI50 [25]: > 100 µM
- TGI [25]: > 100 µM
- GI50 [26]: > 100 µM
- TGI [26]: > 100 µM
- GI50 [27]: 36.3 µM
- TGI [27]: > 100 µM
- GI50 [28]: > 100 µM
- TGI [28]: > 100 µM
- GI50 [29]: > 100 µM
- TGI [29]: > 100 µM
- GI50 [30]: > 100 µM
- TGI [30]: > 100 µM
- GI50 [31]: > 100 µM
- TGI [31]: > 100 µM
- GI50 [33]: 60.2 µM
- TGI [33]: > 100 µM
- GI50 [34]: > 100 µM
- TGI [34]: > 100 µM
- GI50 [35]: > 100 µM
- TGI [35]: > 100 µM
- GI50 [36]: > 100 µM
- TGI [36]: > 100 µM
- GI50 [37]: > 100 µM
- TGI [37]: > 100 µM
- GI50 [38]: > 100 µM
- TGI [38]: > 100 µM
- GI50 [39]: > 100 µM
- TGI [39]: > 100 µM
- GI50 [40]: > 100 µM
- TGI [40]: > 100 µM
- GI50 [41]: > 100 µM
- TGI [41]: > 100 µM
- GI50 [42]: > 100 µM
- TGI [42]: > 100 µM
- GI50 [43]: > 100 µM
- TGI [43]: > 100 µM
- GI50 [44]: > 100 µM
- TGI [44]: > 100 µM
- GI50 [45]: > 100 µM
- TGI [45]: > 100 µM
- GI50 [46]: > 100 µM
- TGI [46]: > 100 µM
- GI50 [47]: > 100 µM
- TGI [47]: > 100 µM
- GI50 [48]: 49.8 µM
- TGI [48]: > 100 µM
- GI50 [49]: > 100 µM
- TGI [49]: > 100 µM
- GI50 [50]: > 100 µM
- TGI [50]: > 100 µM
- GI50 [51]: > 100 µM
- TGI [51]: > 100 µM
- GI50 [52]: 15.9 µM
- TGI [52]: 96.4 µM
- GI50 [53]: > 100 µM
- TGI [53]: > 100 µM
- GI50 [54]: 70.8 µM
- TGI [54]: > 100 µM
- GI50 [55]: > 100 µM
- TGI [55]: > 100 µM
- GI50 [56]: > 100 µM
- TGI [56]: > 100 µM
- GI50 [57]: > 100 µM
- TGI [57]: > 100 µM
- GI50 [58]: > 100 µM
- TGI [58]: > 100 µM
- GI50 [59]: 74.6 µM
- TGI [59]: > 100 µM
